Assay results as given in PMC5097156, “Potent and selective chemical probe of hypoxic signalling downstream of HIF-α hydroxylation via VHL inhibition” (Nature Communications, 2016).

Tests used:
Assay in all cases: biochemical
Design in all cases: CEREP ExpresSProfile competition binding, remaining control specific binding of reference compound
Details in all cases: radioligand binding; read-out: Mean % of control specific binding (±sd)
5-HT transporter (h) = molecular target: T1, 5-HT transporter (h) (Homo sapiens, UniProt P31645)
T1 construct: gene SLC6A4

5-HT2B (h) = molecular target: T2, 5-HT2B (h) (Homo sapiens, UniProt P41595)
T2 construct: gene HTR2B
T2 sequence (P41595 whole entry): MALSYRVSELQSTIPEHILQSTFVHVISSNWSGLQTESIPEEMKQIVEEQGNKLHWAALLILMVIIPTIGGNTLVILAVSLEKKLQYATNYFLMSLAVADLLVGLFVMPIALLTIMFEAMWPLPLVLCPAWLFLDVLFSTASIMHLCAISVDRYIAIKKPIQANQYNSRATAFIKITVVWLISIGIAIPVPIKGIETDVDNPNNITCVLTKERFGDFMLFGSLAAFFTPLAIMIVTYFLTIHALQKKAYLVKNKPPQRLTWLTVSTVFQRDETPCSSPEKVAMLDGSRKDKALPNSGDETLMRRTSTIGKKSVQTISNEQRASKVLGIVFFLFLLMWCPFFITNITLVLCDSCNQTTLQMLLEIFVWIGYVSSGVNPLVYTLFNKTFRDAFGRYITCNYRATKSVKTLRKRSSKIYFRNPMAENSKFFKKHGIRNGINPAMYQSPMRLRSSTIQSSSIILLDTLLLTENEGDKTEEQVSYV

5-HT5a (h) = molecular target: T3, 5-HT5a (h) (Homo sapiens, UniProt P47898)
T3 construct: gene HTR5A

A1 (h) = molecular target: T4, A1 (h) (Homo sapiens, UniProt P30542)
T4 construct: gene ADORA1

A2A (h) = molecular target: T5, A2A (h) (Homo sapiens, UniProt P29274)
T5 construct: gene ADORA2A
T5 sequence (P29274 whole entry): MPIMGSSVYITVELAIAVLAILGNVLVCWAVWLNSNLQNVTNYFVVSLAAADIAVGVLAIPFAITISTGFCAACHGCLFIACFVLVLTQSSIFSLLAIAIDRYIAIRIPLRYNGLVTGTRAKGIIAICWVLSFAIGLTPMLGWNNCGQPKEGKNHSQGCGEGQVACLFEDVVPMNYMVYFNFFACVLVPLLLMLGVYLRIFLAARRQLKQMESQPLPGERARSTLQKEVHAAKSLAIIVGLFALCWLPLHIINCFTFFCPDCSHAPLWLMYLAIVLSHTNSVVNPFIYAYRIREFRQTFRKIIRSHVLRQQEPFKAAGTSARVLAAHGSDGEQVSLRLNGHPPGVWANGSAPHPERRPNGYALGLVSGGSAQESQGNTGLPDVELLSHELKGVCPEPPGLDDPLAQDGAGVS

A3 (h) = molecular target: T6, A3 (h) (Homo sapiens, UniProt P0DMS8)
T6 construct: gene ADORA3
T6 sequence (P0DMS8 whole entry): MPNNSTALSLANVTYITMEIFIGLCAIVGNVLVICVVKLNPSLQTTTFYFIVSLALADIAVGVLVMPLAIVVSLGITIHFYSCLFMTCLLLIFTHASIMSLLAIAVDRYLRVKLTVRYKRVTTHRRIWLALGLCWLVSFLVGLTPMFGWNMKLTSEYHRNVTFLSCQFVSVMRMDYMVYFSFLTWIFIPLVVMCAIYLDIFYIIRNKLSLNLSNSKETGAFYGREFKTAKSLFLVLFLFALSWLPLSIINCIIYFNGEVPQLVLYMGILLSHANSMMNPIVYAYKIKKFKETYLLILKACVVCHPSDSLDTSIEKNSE

B2 (h) = molecular target: T7, B2 (h) (Homo sapiens, UniProt P30411)
T7 construct: gene BDKRB2

CB1 (h) = molecular target: T8, CB1 (h) (Homo sapiens, UniProt P21554)
T8 construct: gene CNR1
T8 sequence (P21554 whole entry): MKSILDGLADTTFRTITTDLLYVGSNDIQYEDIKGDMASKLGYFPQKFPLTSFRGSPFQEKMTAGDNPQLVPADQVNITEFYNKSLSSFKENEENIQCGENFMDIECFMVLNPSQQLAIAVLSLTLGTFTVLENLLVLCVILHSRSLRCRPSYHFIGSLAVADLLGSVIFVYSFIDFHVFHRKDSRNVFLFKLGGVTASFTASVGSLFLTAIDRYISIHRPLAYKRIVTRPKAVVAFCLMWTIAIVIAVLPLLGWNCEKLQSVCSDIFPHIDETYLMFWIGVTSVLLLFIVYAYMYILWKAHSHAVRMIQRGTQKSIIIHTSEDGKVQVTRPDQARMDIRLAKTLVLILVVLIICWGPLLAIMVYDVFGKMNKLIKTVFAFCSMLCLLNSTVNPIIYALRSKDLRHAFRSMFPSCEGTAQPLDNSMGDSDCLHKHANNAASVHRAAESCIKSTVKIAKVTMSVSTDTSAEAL

CCK1 (CCKA) (h) = molecular target: T9, CCK1 (CCKA) (h) (Homo sapiens, UniProt P32238)
T9 construct: gene CCKAR
T9 sequence (P32238 whole entry): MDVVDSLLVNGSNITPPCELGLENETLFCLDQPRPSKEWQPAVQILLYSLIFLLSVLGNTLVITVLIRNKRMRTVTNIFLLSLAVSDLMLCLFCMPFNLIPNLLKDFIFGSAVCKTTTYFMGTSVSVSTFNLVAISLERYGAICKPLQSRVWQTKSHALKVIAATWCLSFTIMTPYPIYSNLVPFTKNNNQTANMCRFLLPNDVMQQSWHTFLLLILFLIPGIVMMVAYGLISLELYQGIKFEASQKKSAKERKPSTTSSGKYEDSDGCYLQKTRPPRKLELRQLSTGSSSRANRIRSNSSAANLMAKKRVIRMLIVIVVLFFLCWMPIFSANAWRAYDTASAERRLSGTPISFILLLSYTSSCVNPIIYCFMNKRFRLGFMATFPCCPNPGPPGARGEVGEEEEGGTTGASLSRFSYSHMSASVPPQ

D1 (h) = molecular target: T10, D1 (h) (Homo sapiens, UniProt P21728)
T10 construct: gene DRD1

D2S (h) = molecular target: T11, D2S (h) (Homo sapiens, UniProt P14416)
T11 construct: gene DRD2; D2S short isoform
T11 sequence (P14416 whole entry, canonical isoform): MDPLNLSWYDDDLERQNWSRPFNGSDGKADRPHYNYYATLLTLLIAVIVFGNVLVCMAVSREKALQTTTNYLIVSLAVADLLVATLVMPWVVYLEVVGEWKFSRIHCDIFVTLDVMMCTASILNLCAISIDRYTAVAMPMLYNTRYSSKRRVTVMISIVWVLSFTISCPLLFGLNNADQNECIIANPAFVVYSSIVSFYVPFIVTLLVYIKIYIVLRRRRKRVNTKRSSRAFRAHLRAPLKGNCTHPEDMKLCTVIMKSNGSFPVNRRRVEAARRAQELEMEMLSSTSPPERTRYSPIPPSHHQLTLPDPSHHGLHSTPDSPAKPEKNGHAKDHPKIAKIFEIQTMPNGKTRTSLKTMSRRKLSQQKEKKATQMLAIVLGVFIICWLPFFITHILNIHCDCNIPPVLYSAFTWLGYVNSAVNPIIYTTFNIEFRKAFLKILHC

H2 (h) = molecular target: T12, H2 (h) (Homo sapiens, UniProt P25021)
T12 construct: gene HRH2
T12 sequence (P25021 whole entry): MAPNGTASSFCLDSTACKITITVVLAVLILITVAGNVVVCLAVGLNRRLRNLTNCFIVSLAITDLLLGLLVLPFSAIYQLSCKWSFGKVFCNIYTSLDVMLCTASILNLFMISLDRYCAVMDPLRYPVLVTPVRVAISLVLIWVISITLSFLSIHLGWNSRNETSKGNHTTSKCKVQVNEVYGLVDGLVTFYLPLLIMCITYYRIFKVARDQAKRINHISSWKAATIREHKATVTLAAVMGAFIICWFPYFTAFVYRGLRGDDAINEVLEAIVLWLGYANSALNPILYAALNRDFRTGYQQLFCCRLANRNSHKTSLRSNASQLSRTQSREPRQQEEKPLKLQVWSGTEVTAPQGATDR

M1 (h) = molecular target: T13, M1 (h) (Homo sapiens, UniProt P11229)
T13 construct: gene CHRM1

M2 (h) = molecular target: T14, M2 (h) (Homo sapiens, UniProt P08172)
T14 construct: gene CHRM2

M3 (h) = molecular target: T15, M3 (h) (Homo sapiens, UniProt P20309)
T15 construct: gene CHRM3

MC4 (h) = molecular target: T16, MC4 (h) (Homo sapiens, UniProt P32245)
T16 construct: gene MC4R

MT1 (ML1A) (h) = molecular target: T17, MT1 (ML1A) (h) (Homo sapiens, UniProt P48039)
T17 construct: gene MTNR1A
T17 sequence (P48039 whole entry): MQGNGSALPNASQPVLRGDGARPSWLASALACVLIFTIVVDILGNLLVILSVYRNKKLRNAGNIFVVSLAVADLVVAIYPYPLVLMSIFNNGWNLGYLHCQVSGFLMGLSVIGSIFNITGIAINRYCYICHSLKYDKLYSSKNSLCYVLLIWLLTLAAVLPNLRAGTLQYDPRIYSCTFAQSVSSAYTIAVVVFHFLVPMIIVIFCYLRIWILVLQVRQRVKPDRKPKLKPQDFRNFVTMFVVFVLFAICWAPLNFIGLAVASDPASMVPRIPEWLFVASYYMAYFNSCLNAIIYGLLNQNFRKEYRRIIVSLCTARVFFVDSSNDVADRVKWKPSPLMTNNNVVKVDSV

NK3 (h) = molecular target: T18, NK3 (h) (Homo sapiens, UniProt P29371)
T18 construct: gene TACR3

NTS1 (NT1) (h) = molecular target: T19, NTS1 (NT1) (h) (Homo sapiens, UniProt P30989)
T19 construct: gene NTSR1
T19 sequence (P30989 whole entry): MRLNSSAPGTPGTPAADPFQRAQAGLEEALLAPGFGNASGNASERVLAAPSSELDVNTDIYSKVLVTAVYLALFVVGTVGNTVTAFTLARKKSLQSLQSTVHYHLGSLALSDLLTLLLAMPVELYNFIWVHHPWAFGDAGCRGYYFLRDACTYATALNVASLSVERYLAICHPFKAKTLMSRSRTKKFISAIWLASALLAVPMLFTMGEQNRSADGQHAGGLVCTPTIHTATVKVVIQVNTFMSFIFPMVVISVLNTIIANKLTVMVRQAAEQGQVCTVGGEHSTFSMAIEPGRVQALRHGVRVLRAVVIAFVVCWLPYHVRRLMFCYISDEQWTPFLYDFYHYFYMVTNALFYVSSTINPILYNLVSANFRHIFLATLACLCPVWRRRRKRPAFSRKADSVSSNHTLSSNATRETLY

VPAC1 (VIP1) (h) = molecular target: T20, VPAC1 (VIP1) (h) (Homo sapiens, UniProt P32241)
T20 construct: gene VIPR1
T20 sequence (P32241 whole entry): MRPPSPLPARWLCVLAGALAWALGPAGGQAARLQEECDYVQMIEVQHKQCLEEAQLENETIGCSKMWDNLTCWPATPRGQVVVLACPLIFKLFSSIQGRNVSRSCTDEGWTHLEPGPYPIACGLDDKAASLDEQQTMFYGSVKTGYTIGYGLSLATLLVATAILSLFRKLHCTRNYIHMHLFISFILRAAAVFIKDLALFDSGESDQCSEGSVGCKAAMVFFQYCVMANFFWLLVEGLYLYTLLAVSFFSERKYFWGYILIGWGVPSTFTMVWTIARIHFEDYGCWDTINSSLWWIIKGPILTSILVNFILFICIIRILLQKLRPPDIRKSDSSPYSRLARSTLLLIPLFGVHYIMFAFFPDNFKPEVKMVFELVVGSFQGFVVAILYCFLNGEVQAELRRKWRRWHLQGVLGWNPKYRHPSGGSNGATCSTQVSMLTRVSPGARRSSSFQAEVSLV

Y2 (h) = molecular target: T21, Y2 (h) (Homo sapiens, UniProt P49146)
T21 construct: gene NPY2R

beta 2 (h) = molecular target: T22, beta 2 (h) (Homo sapiens, UniProt P07550)
T22 construct: gene ADRB2
T22 sequence (P07550 whole entry): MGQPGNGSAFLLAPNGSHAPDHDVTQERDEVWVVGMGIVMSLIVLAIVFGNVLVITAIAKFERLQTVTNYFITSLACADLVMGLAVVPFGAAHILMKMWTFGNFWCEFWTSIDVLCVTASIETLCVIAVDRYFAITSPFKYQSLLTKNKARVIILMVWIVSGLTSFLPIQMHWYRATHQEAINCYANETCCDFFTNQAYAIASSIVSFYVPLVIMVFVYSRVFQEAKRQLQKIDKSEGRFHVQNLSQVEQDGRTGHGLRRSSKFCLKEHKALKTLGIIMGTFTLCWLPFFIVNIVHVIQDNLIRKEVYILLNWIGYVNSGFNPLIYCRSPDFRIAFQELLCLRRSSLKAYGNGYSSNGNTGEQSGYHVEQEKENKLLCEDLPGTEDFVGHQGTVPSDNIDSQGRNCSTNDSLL

delta (DOP) (h) = molecular target: T23, delta (DOP) (h) (Homo sapiens, UniProt P41143)
T23 construct: gene OPRD1

dopamine transporter (h) = molecular target: T24, dopamine transporter (h) (Homo sapiens, UniProt Q01959)
T24 construct: gene SLC6A3

kappa (KOP) = molecular target: T25, kappa (KOP) (Rattus norvegicus, UniProt P34975)
T25 construct: gene Oprk1
T25 sequence (P34975 whole entry): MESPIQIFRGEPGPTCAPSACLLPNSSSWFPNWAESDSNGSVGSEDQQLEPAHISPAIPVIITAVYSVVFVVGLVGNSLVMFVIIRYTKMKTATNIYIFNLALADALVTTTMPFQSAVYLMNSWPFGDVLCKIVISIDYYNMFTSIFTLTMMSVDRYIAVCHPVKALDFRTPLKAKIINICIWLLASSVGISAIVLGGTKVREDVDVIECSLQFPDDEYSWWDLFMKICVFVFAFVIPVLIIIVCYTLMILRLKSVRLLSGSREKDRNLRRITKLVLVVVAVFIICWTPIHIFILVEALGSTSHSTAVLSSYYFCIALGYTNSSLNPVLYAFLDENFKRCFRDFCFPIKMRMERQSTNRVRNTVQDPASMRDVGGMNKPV

Q: How did the remaining binding at 50 µM (5-HT transporter (h)) turn out when `Cc1ncsc1-c1ccc(CNC(=O)[C@@H]2C[C@@H](O)CN2C(=O)[C@@H](NC(=O)C2(C#N)CC2)C(C)(C)C)cc1` [VH298] was run?
A: 92%

Q: And the remaining binding at 50 µM (5-HT2B (h))?
A: 91%

Q: And the remaining binding at 50 µM (5-HT5a (h))?
A: 105%

Q: What about the remaining binding at 50 µM (A1 (h)) of the same molecule?
A: 90%

Q: What about the remaining binding at 50 µM (A2A (h)) of the same molecule?
A: 121%

Q: What about the remaining binding at 50 µM (A3 (h)) of the same molecule?
A: 55%

Q: And the remaining binding at 50 µM (B2 (h))?
A: 101%

Q: What about the remaining binding at 50 µM (CB1 (h)) of the same molecule?
A: 115%

Q: And the remaining binding at 50 µM (CCK1 (CCKA) (h))?
A: 127%

Q: What about the remaining binding at 50 µM (D1 (h)) of the same molecule?
A: 103%

Q: And the remaining binding at 50 µM (D2S (h))?
A: 91%

Q: What about the remaining binding at 50 µM (H2 (h)) of the same molecule?
A: 140%

Q: And the remaining binding at 50 µM (M1 (h))?
A: 94%

Q: What about the remaining binding at 50 µM (M2 (h)) of the same molecule?
A: 94%

Q: What about the remaining binding at 50 µM (M3 (h)) of the same molecule?
A: 95%

Q: And the remaining binding at 50 µM (MC4 (h))?
A: 98%

Q: What about the remaining binding at 50 µM (MT1 (ML1A) (h)) of the same molecule?
A: 75%

Q: And the remaining binding at 50 µM (NK3 (h))?
A: 94%

Q: And the remaining binding at 50 µM (NTS1 (NT1) (h))?
A: 103%

Q: What about the remaining binding at 50 µM (VPAC1 (VIP1) (h)) of the same molecule?
A: 85%

Q: What about the remaining binding at 50 µM (Y2 (h)) of the same molecule?
A: 97%

Q: And the remaining binding at 50 µM (beta 2 (h))?
A: 95%

Q: And the remaining binding at 50 µM (delta (DOP) (h))?
A: 65%

Q: And the remaining binding at 50 µM (dopamine transporter (h))?
A: 90%

Q: And the remaining binding at 50 µM (kappa (KOP))?
A: 92%
